# Laboratory results reported in PubChem BioAssay AID1963849 (Molecular Pharmacology Branch, DTP, NCI, 2024).
# Test system: 299254-011-R-J1-PDC complex spheroid viability
# Test: Anticancer human tumor 299254-011-R-J1-PDC patient-derived melanoma cell line growth inhibition [POLQ]
# Details: for IC50: curve of first compound; for viability, T/C: stronger effect = lower value
# Summary of the method: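 Growth inhibition in 3D: complex spheroids (tumor PDC, HUVEC, MSC) treated with POLQ inhibitor combinations; where Cmax unknown, highest tested concentration 10 microM, except SN-38 at 1 microM.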
# 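Further: spheroids exposed to drugs for one week before measurement.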
# 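Wherever viability, T/C is given: percent viability relative to DMSO vehicle control taken as 100%.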
structure (smiles),measurement,setting,value
C=CCn1c(=O)c2cnc(Nc3ccc(N4CCN(C)CC4)cc3)nc2n1-c1cccc(C(C)(C)O)n1 + Nc1ccc(C#CCN(C(=O)Cc2ncc(C(F)(F)F)cc2C(F)(F)F)c2ccc(F)cc2)nn1,IC50,second compound 0.0316 µM,> 1000 nM
same,IC50,second compound 0.1 µM,> 1000 nM
same,IC50,second compound 0.316 µM,> 1000 nM
same,IC50,second compound 1 µM,> 1000 nM
same,IC50,second compound 3.16 µM,> 1000 nM
same,IC50,second compound 10 µM,> 1000 nM
same,"viability, T/C","second compound 0.0316 µM, first compound 0.00316 µM",104%
same,"viability, T/C","second compound 0.0316 µM, first compound 0.01 µM",85%
same,"viability, T/C","second compound 0.0316 µM, first compound 0.0316 µM",98.5%
same,"viability, T/C","second compound 0.0316 µM, first compound 0.1 µM",105%
same,"viability, T/C","second compound 0.0316 µM, first compound 0.316 µM",95.8%
same,"viability, T/C","second compound 0.0316 µM, first compound 1 µM",68.3%
same,"viability, T/C","second compound 0.1 µM, first compound 0.00316 µM",101%
same,"viability, T/C","second compound 0.1 µM, first compound 0.01 µM",93.1%
same,"viability, T/C","second compound 0.1 µM, first compound 0.0316 µM",94.9%
same,"viability, T/C","second compound 0.1 µM, first compound 0.1 µM",102%
same,"viability, T/C","second compound 0.1 µM, first compound 0.316 µM",104%
same,"viability, T/C","second compound 0.1 µM, first compound 1 µM",69.9%
same,"viability, T/C","second compound 0.316 µM, first compound 0.00316 µM",104%
same,"viability, T/C","second compound 0.316 µM, first compound 0.01 µM",101%
same,"viability, T/C","second compound 0.316 µM, first compound 0.0316 µM",93.4%
same,"viability, T/C","second compound 0.316 µM, first compound 0.1 µM",93.4%
same,"viability, T/C","second compound 0.316 µM, first compound 0.316 µM",104%
same,"viability, T/C","second compound 0.316 µM, first compound 1 µM",74.6%
same,"viability, T/C","second compound 1 µM, first compound 0.00316 µM",102%
same,"viability, T/C","second compound 1 µM, first compound 0.01 µM",120%
same,"viability, T/C","second compound 1 µM, first compound 0.0316 µM",107%
same,"viability, T/C","second compound 1 µM, first compound 0.1 µM",97.2%
same,"viability, T/C","second compound 1 µM, first compound 0.316 µM",94.4%
same,"viability, T/C","second compound 1 µM, first compound 1 µM",58%
same,"viability, T/C","second compound 3.16 µM, first compound 0.00316 µM",95.5%
same,"viability, T/C","second compound 3.16 µM, first compound 0.01 µM",95.5%
same,"viability, T/C","second compound 3.16 µM, first compound 0.0316 µM",95.7%
same,"viability, T/C","second compound 3.16 µM, first compound 0.1 µM",95.3%
same,"viability, T/C","second compound 3.16 µM, first compound 0.316 µM",101%
same,"viability, T/C","second compound 3.16 µM, first compound 1 µM",72.5%
same,"viability, T/C","second compound 10 µM, first compound 0.00316 µM",103%
same,"viability, T/C","second compound 10 µM, first compound 0.01 µM",92%
same,"viability, T/C","second compound 10 µM, first compound 0.0316 µM",88.6%
same,"viability, T/C","second compound 10 µM, first compound 0.1 µM",87.5%
same,"viability, T/C","second compound 10 µM, first compound 0.316 µM",77.3%
same,"viability, T/C","second compound 10 µM, first compound 1 µM",58.9%
